Test: Tritiated Sulfonamide Binding to Membranes: isolated from cells that heterologously express hNav1.7 and the β1 subunit Preparation of membranes containing recombinantly expressed sodium channels: Frozen recombinant cell pellets were thawed on ice and diluted to 4 times the cell pellet weight with ice cold 50 mM Tris HCl, pH 7.4 buffer. The cell suspensions were homogenized on ice using a motorized glass dounce homogeniser. Homogenates were further diluted 8.4 times with ice cold 50 mM Tris HCl, pH 7.4 buffer and then centrifuged at 200×g at 4° C. for 15 min. The supernatants were collected and centrifuged at 10000×g at 4° C. for 50 min. The pellets were then re-suspended in 100 mM NaCl, 20 mM Tris HCl, pH 7.4 buffer containing 1% v/v protease inhibitors (Calbiochem) and re-homogenized on ice. The homogenized membranes were then processed through a syringe equipped with a 26 gauge needle. Protein concentrations were determined by Bradford Assay and the membranes were stored at −80° C.Radioligand Binding Studies:Saturation experiments. A representative compound of formula (I) having a methyl group was tritiated. Three tritiums were incorporated in place of methyl hydrogens to generate [3H]compound. Binding of this radioligand was preformed in 5 mL borosilicate glass test tubes at room temperature. Binding was initiated by adding membranes to increasing concentrations of [3H]compound in 100 mM NaCl, 20 mM Tris HCl, pH 7.4 buffer containing 0.01% w/v bovine serum albumin (BSA) for 18 h. Non-specific binding was determined in the presence of 1 μM unlabelled compound. After 18 h, the reactants were filtered through GF/C glass fiber filters presoaked in 0.5% w/v polyethylene imine. Filters were washed with 15 mL ice cold 100 mM NaCl, 20 mM Tris HCl, pH7.4 buffer containing 0.25% BSA to separate bound from free ligand. [3H]compound bound to filters was quantified by liquid scintillation counting.Competitive Binding Experiments:Binding reactions were preformed in 96-well polypropylene plates at room temperature for 18 h. In 360 μL, membranes were incubated with 100 pM [3H]compound and increasing concentrations of Test Compound. Non-specific binding was defined in the presence of 1 μM unlabelled compound. Reactions were transferred and filtered through 96-well glass fiber/C filter plates presoaked with 0.5% polyethylene imine. The filtered reactions were washed 5 times with 200 μL ice cold buffer containing 0.25% BSA. Bound radioactivity was determined by liquid scintillation counting.Data Analysis: For saturation experiments, non-specific binding was subtracted from total binding to provide specific binding and these values were recalculated in terms of pmol ligand bound per mg protein. Saturation curves were constructed and dissociation constants were calculated using the single site ligand binding model: Beq=(Bmax*X)/(X+Kd), where Beq is the amount of ligand bound at equilibrium, Bmax is the maximum receptor density, Kd is the dissociation constant for the ligand, and X is the free ligand concentration. For competition studies percent inhibition was determined and IC50 values were calculated using a 4 parameter logistic model (% inhibition=(A+((B−A)/(1+((x/C)^D)))) using XLfit, where A and B are the maximal and minimum inhibition respectively, C is the IC50 concentration and D is the (Hill) slope.

| IC50 | Structure (SMILES) |
| --- | --- |
| 18.1 nM | CC(C)Oc1ncc(Oc2cc(F)c(C(=O)NS(=N)(=O)C3CC3)cc2Cl)cc1Cl (centres undefined) |
| 238 nM | N=S(=O)(NC(=O)c1cc(F)c(Oc2ccc(OC(F)(F)F)c(Cl)c2)cc1F)C1CC1 (centres undefined) |
| 2290 nM | N=S(=O)(NC(=O)c1cc(C2CC2)c(O[C@@H]2CCCN(Cc3c(Cl)cccc3Cl)C2)cc1F)C1CC1 (some centres undefined) |
| 210 nM | COc1cc(C(=O)NS(=N)(=O)C2CC2)c(F)cc1OCC12CC3CC(CC(C3)C1)C2 (centres undefined) |
| 14.2 nM | N=S(=O)(NC(=O)c1cc(C2CC2)c(COc2cc(F)cc(C(F)(F)F)c2)cc1F)C1CC1 (centres undefined) |
| 80.9 nM | N=S(=O)(NC(=O)c1cc(C2CC2)c(OCC23CC4CC(CC(C4)C2)C3)cc1F)N1CCC1 (centres undefined) |
| 92.5 nM | C[C@@H](c1cc(Cl)cc(Cl)c1)N1CCC(COc2cc(F)c(C(=O)NS(=N)(=O)C3CC3)cc2C2CC2)CC1 (some centres undefined) |
| 159 nM | N=S(=O)(NC(=O)c1cc(Cl)c(Oc2cnc(OCC(F)(F)C(F)F)c(Cl)c2)cc1F)N1CCC1 (centres undefined) |
| 182 nM | N=S(=O)(NC(=O)c1cc(C2CC2)c(OCC2(F)CCN(Cc3cc(C(F)(F)F)cc(Cl)c3F)CC2)cc1F)C1CC1 (centres undefined) |
| 616 nM | C[C@@H](c1cc(Cl)cc(Cl)c1)N1CCC(COc2ccc(C(=O)NS(=N)(=O)C3CC3)cc2C2CC2)CC1 (some centres undefined) |
| 19.8 nM | COc1ncccc1-c1cc(C(=O)NS(=N)(=O)C2CC2)c(F)cc1Oc1cnc(OC(C)C)c(Cl)c1 (centres undefined) |
| 23.8 nM | N=S(=O)(NC(=O)c1cc(Cl)c(Oc2cnc(OCC(F)(F)C(F)F)c(Cl)c2)cc1F)C1CC1 (centres undefined) |
| 23.6 nM | N=S(=O)(NC(=O)c1cc(Cl)c(Oc2cnc(OCC(F)(F)F)c(Cl)c2)cc1F)C1CC1 (centres undefined) |
| 8.67 nM | N=S(=O)(NC(=O)c1cc(C2CC2)c(COc2cc(Cl)cc(OC(F)(F)F)c2)cc1F)C1CC1 (centres undefined) |
